The values below come from patent US12129237B2, “Substituted diaminocarboxamide and diaminocarbonitrile pyrimidines, compositions thereof, and methods of treatment therewith” (SIGNAL PHARMACEUTICALS, LLC, priority 2011, dated 2024).

Where only a bound is given, the exact number is not on record here.

The target in one assay is T1, JNK1 (Homo sapiens, UniProt P45983).
T1 construct: purchased Carna Biosciences
T1 sequence (P45983 whole entry): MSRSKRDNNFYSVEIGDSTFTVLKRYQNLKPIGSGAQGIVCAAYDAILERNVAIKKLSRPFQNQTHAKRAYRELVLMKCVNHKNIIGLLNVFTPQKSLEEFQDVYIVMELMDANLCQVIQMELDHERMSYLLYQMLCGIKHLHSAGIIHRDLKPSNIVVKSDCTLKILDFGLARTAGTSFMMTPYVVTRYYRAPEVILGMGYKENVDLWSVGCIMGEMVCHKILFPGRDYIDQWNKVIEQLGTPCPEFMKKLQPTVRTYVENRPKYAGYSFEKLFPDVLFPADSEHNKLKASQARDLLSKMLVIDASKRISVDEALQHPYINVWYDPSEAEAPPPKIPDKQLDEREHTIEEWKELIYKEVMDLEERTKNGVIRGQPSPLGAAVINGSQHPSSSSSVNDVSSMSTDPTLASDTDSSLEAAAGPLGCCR
Put plainly: JNK1 biochemical assays (one or more of: time resolved fluorescence, Z'-LYTE Cascade, radioactive). As to conditions: Table 2; JNK1 IC50 activity level; read-out: Act. Level.
Consider `NC(=O)c1cnc(NCCc2ccccc2)nc1Nc1ccccc1` [Example B-71, 2-(phenethylamino)-4-(phenylamino)pyrimidine-5-carboxamide], for which the IC50 lay in the range of 200 to 800 nM. The same measure, in the same setting: the value for `NC(=O)c1cnc(Nc2cccc(F)c2)nc1Nc1ccccc1` [Example B-24, 2-(3-fluorophenylamino)-4-(phenylamino)pyrimidine-5-carboxamide] was less than 200 nM. With `NC(=O)c1cnc(N[C@H]2CC[C@H](N)CC2)nc1Nc1ccccc1` [Example B-7, 2-((1r,4r)-4-aminocyclohexylamino)-4-(phenylamino)pyrimidine-5-carboxamide], the IC50 is less than 200 nM. Regarding `NC(=O)c1cnc(NCc2cccnc2)nc1Nc1ccccc1` [Example B-51, 4-(phenylamino)-2-(pyridin-3-ylmethylamino)pyrimidine-5-carboxamide], the IC50 was 200 to 800 nM. Same read-out and setting: the result for `COc1ccc(CCNc2ncc(C(N)=O)c(Nc3ccccc3)n2)cc1OC` [Example B-66, 2-(3,4-dimethoxyphenethylamino)-4-(phenylamino)pyrimidine-5-carboxamide] reads 200 to 800 nM. In the case of `NC(=O)c1cnc(NCc2cccc(F)c2)nc1Nc1ccccc1` [Example B-39, 2-(3-fluorobenzylamino)-4-(phenylamino)pyrimidine-5-carboxamide], the IC50 was 200 to 800 nM. For the compound `NC(=O)c1cnc(NCc2ccc(F)cc2F)nc1Nc1ccccc1` [Example B-57, 2-(2,4-difluorobenzylamino)-4-(phenylamino)pyrimidine-5-carboxamide], the IC50 is 200 to 800 nM.

The assay is the same for the next values; noted with them: Table 3; JNK1 IC50 activity level; read-out: Act. Level.
Regarding `N#Cc1cnc(NC2CCCCC2)nc1N[C@@H]1CCC[C@H](O)C1` [Example C-10, 2-(cyclohexylamino)-4-((1R,3S)-3-hydroxycyclohexylamino) pyrimidine-5-carbonitrile], the IC50 is less than 200 nM. Still for that read-out and setting: the value for `CCO[C@H]1CC[C@H](Nc2ncc(C#N)c(N[C@@H]3CCC[C@H](O)C3)n2)CC1` [Example C-2, 2-((1r,4R)-4-ethoxycyclohexylamino)-4-((1R,3S)-3-hydroxycyclohexylamino) pyrimidine-5-carbonitrile] was less than 200 nM; that for `CCO[C@H]1CC[C@H](Nc2ncc(C#N)c(NC3CCCC3)n2)CC1` [Example C-23, 4-(cyclopentylamino)-2-((1r,4r)-4-ethoxycyclohexylamino) pyrimidine-5-carbonitrile] was 200 to 800 nM.

Still in this assay, the particulars now being: one or more of the JNK1 biochemical assays; read-out: Act. Level (JNK1 IC50 activity level).
Turning to `COC12CCC(Nc3ncc(C(N)=O)c(NC4CCC[C@](C)(O)C4)n3)(CC1)CC2` (stereo partly drawn) [Example 370, 4-((3S)-3-hydroxy-3-methylcyclohexylamino)-2-(4-methoxybicyclo[2.2.2]octan-1-ylamino)pyrimidine-5-carboxamide], the IC50 was less than 200 nM. Same read-out and setting: the value for `CO[C@H]1CC[C@H](Nc2ncc(C(N)=O)c(NC3CCC3C)n2)CC1` (some centres unmarked) [Example 255, 2-((1r,4r)-4-methoxycyclohexylamino)-4-(2-methylcyclobutylamino)pyrimidine-5-carboxamide] was less than 200 nM; that for `CO[C@H]1CC[C@H](Nc2ncc(C(N)=O)c(NC3CCC3C)n2)CC1` (some centres unmarked) [Example 254, 2-((1r,4r)-4-methoxycyclohexylamino)-4-(2-methylcyclobutylamino)pyrimidine-5-carboxamide] was less than 200 nM. The same measure, in the same setting: the value for `NC(=O)c1cnc(NC23CCC(F)(CC2)CC3)nc1N[C@@H]1CCCC[C@H](O)C1` [Example 335, 2-(4-fluorobicyclo[2.2.2]octan-1-ylamino)-4-((1R,3S)-3-hydroxycycloheptylamino)pyrimidine-5-carboxamide] was less than 200 nM; that for `CC(C)CC(C)(C)Nc1nc(N[C@H]2CC[C@H](O)CC2)ncc1C(N)=O` [Example 369, 4-(2,4-dimethylpentan-2-ylamino)-2-((1r,4r)-4-hydroxycyclohexylamino)pyrimidine-5-carboxamide] was less than 200 nM. The same measure, in the same setting: the result for `CO[C@H]1CC[C@H](Nc2ncc(C(N)=O)c(N[C@H]3C[C@H](C)C3)n2)CC1` [Example 336, 2-((1r,4r)-4-methoxycyclohexylamino)-4-((1r,3r)-3-methylcyclobutylamino)pyrimidine-5-carboxamide] reads less than 200 nM; that for `CO[C@H]1CC[C@H](Nc2ncc(C(N)=O)c(NC3(C)CCC3)n2)CC1` [Example 402], less than 200 nM; that for `CC(C)Nc1nc(NC23CCC(O)(CC2)CC3)ncc1C(N)=O` [Example 202, 2-(4-hydroxybicyclo[2.2.2]octan-1-ylamino)-4-(isopropylamino)pyrimidine-5-carboxamide], less than 200 nM. As for `CC(C)(C)Nc1nc(NC2CCCC(O)CC2)ncc1C(N)=O` (centres unmarked) [Example 251, 4-(tert-butylamino)-2-(4-hydroxycycloheptylamino)pyrimidine-5-carboxamide], the IC50 was less than 200 nM. Same read-out and setting: the value for `CO[C@H]1CC[C@H](Nc2ncc(C(N)=O)c(N[C@@H]3CCC[C@H]3CO)n2)CC1` [Example 260, 4-((1R,2R)-2-(hydroxymethyl)cyclopentylamino)-2-((1r,4R)-4-methoxycyclohexylamino)pyrimidine-5-carboxamide] was less than 200 nM; that for `CO[C@H]1CC[C@H](Nc2ncc(C(N)=O)c(NC3(C)CCCCC3)n2)CC1` [Example 358, 2-((1r,4r)-4-methoxycyclohexylamino)-4-(1-methylcyclohexylamino)pyrimidine-5-carboxamide] was less than 200 nM.

On to `C[C@@H]1CC[C@@H](Nc2nc(N[C@H](C)C3CC3)ncc2C(N)=O)C[C@H]1O` [Example 394, 2-((R)-1-cyclopropylethylamino)-4-((1R,3R,4R)-3-hydroxy-4-methylcyclohexylamino)pyrimidine-5-carboxamide], for which the IC50 was less than 200 nM. The same measure, in the same setting: the result for `C[C@@H]1CC[C@@H](Nc2nc(NC3(C)CCC3)ncc2C(N)=O)C[C@H]1O` [Example 287, 4-((1R,3R,4R)-3-hydroxy-4-methylcyclohexylamino)-2-(1-methylcyclobutylamino)pyrimidine-5-carboxamide] reads less than 200 nM; that for `COCC(C)(C)Nc1nc(N[C@H]2CC[C@H](O)CC2)ncc1C(N)=O` [Example 271, 2-((1r,4r)-4-hydroxycyclohexylamino)-4-(1-methoxy-2-methylpropan-2-ylamino)pyrimidine-5-carboxamide], less than 200 nM; that for `CC1(C)CCC(Nc2nc(NC3CCC3)ncc2C(N)=O)CC1O` (centres unmarked) [Example 429, 2-(cyclobutylamino)-4-(3-hydroxy-4,4-dimethylcyclohexylamino)pyrimidine-5-carboxamide], less than 200 nM. With `C[C@]1(O)CCCC(Nc2nc(NC34CCC(F)(CC3)CC4)ncc2C(N)=O)C1` (stereo partly drawn) [Example 321, 2-(4-fluorobicyclo[2.2.2]octan-1-ylamino)-4-((3S)-3-hydroxy-3-methylcyclohexylamino)pyrimidine-5-carboxamide], the IC50 is less than 200 nM. For the compound `CCO[C@H]1CC[C@H](Nc2ncc(C(N)=O)c(N[C@H]3C[C@@H](C)C3)n2)CC1` [Example 326, 2-((1r,4r)-4-ethoxycyclohexylamino)-4-((1s,3s)-3-methylcyclobutylamino)pyrimidine-5-carboxamide], the IC50 was less than 200 nM.

For the compound `NC(=O)c1cnc(N[C@H]2CC[C@H](OC3CC3)CC2)nc1NC12CCC(C1)C2` [Example 487, 4-(bicyclo[2.1.1]hexan-1-ylamino)-2-((1r,4r)-4-cyclopropoxycyclohexylamino)pyrimidine-5-carboxamide], the IC50 is less than 200 nM. On the same count and under the same terms, the value for `NC(=O)c1cnc(NC2CCCC2)nc1N[C@@H]1CCC[C@H](O)C1` [Example 439, 2-(cyclopentylamino)-4-((1R,3S)-3-hydroxycyclohexylamino)pyrimidine-5-carboxamide] was less than 200 nM. Same read-out and setting: the result for `NC(=O)c1cnc(N[C@H]2CC[C@H](O)CC2)nc1NCCC1CC1` [Example 218, 4-(2-cyclopropylethylamino)-2-((1r,4r)-4-hydroxycyclohexylamino)pyrimidine-5-carboxamide] reads less than 200 nM; that for `CC1CCC1Nc1nc(N[C@H]2CC[C@H](O)CC2)ncc1C(N)=O` (some centres unmarked) [Example 247, 2-((1r,4r)-4-hydroxycyclohexylamino)-4-(2-methylcyclobutylamino)pyrimidine-5-carboxamide], less than 200 nM; that for `NC(=O)c1cnc(NC2CCOCC2)nc1NC1CCC1` [Example 435, 4-(cyclobutylamino)-2-(tetrahydro-2H-pyran-4-ylamino)pyrimidine-5-carboxamide], less than 200 nM. With `CCC(C)(C)Nc1ncc(C(N)=O)c(N[C@@H]2CCC[C@](C)(O)C2)n1` [Example 350, 4-((1R,3S)-3-hydroxy-3-methylcyclohexylamino)-2-(tert-pentylamino)pyrimidine-5-carboxamide], the IC50 is less than 200 nM.

Staying with this assay, now noted: tested in one or more of the JNK1 biochemical assays; read-out: Act. Level (JNK1 biochemical assay IC50 activity level).
With `NC(=O)c1cnc(N[C@H]2CC[C@H](OCC(F)(F)F)CC2)nc1NC1CCC1` [Example A-174, 4-(cyclobutylamino)-2-((1r,4r)-4-(2,2,2-trifluoroethoxy)cyclohexylamino)pyrimidine-5-carboxamide], the IC50 was less than 200 nM. The same measure, in the same setting: the result for `CO[C@H]1CC[C@H](Nc2ncc(C(N)=O)c(N[C@@H]3CCC[C@H]3O)n2)CC1` [Example A-65, 4-((1R,2R)-2-hydroxycyclopentylamino)-2-((1r,4R)-4-methoxycyclohexylamino)pyrimidine-5-carboxamide] reads less than 200 nM; that for `CC(C)CC(=O)N1CCC(Nc2ncc(C(N)=O)c(NC3CCOCC3)n2)CC1` [Example A-110, 2-(1-(3-methylbutanoyl)piperidin-4-ylamino)-4-(tetrahydro-2H-pyran-4-ylamino)pyrimidine-5-carboxamide], 200 to 800 nM; that for `NC(=O)c1cnc(NC2CCOCC2)nc1N[C@@H]1CCC[C@H]1O` [Example A-7, 4-((1R,2R)-2-hydroxycyclopentylamino)-2-(tetrahydro-2H-pyran-4-ylamino)pyrimidine-5-carboxamide], less than 200 nM. For `NC(=O)c1cnc(N[C@H]2CC[C@H](OCC(F)(F)F)CC2)nc1N[C@@H]1CCCC[C@H](O)C1` [Example A-160, 4-((1R,3S)-3-hydroxycycloheptylamino)-2-((1r,4R)-4-(2,2,2-trifluoroethoxy)cyclohexylamino)pyrimidine-5-carboxamid], the IC50 was less than 200 nM.
